Our source for the IC50 and melting point values is patent US7964633B2, “Sulfonamide derivatives” (Hoffmann-La Roche Inc., priority 2006, dated 2011).

SMILES strings stand for the structures.

One data set concerns the target T1, human liver FBPase (Homo sapiens, UniProt P09467).
T1 construct: host or cells: E. coli
T1 sequence (P09467 2-338 limits assumed): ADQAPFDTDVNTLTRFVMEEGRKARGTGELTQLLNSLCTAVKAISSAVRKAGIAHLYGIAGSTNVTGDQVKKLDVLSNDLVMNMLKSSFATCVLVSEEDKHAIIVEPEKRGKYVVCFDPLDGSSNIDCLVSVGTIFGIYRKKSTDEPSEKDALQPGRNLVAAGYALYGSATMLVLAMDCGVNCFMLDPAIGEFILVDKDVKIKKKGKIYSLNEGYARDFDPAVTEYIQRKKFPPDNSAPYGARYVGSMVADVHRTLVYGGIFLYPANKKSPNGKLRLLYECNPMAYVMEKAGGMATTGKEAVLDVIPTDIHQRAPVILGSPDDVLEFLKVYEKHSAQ
The data set is described as follows: FBPase assay (malachite green phosphate release). The note with it: recombinant human liver FBPase, 50 μM fructose-1,6-bisphosphate, pH 7.2, 50 minutes at room temperature. In kind it is biochemical. As to the method: The following tests were carried out for evaluating the inhibitory activity of the compounds of the present invention against human liver FBPase (Swissprot Data base reference PO9467, entry F16P_HUMAN).
Enzyme preparation: Human liver FBPase cDNA (NM_000507) was purchased from Origene Technologies, Inc, subcloned in a vector for expression in E. Coli., and sequenced. Recombinant human liver FBPase (hIFBPase) was purified according to the following protocol that uses heat denaturation similarly to that described by El-Maghrabi et. al. [El-Maghrabi, M. R. et al. “Isolation of a human liver fructose-1,6-bisphosphatase cDNA and expression of the protein in Escherichia coli.” J Biol Chem 268:9466-9472, 1993.]. […] Purity of the enzyme preparation was >90% as assessed by Mass spectrometry.
In vitro activity: Recombinant human liver FBPase (hIFBPase) activity was assayed through measuring the inorganic phosphate release that results from the hydrolysis of Fructose-1,6-bisphosphate by the enzyme. […] Anal. Biochem., 171:266-270, 1988], inorganic phosphate can be readily quantified by spectrophotometry at 620 nm after complexation with ammonium molybdate/malachite green reagent. […] Under these conditions, the assay was linear with time and able to detect FBPase inhibition after spectrophotometric read-out at 620 nm.

As a reminder, the IC50 is the point on the concentration scale where inhibition reaches its midpoint. Turning to `O=C(NCCCCCCNC(=O)NS(=O)(=O)c1cccc(Cl)c1)NS(=O)(=O)c1cccc(Cl)c1` [Example 1], the concentration for half-maximal inhibition (IC50) on human liver FBPase worked out at 17 nM.

In general, melting point refers to the temperature of the solid-liquid transition. For the compound `O=C(NCCSSCCNC(=O)NS(=O)(=O)c1cccc(Cl)c1)NS(=O)(=O)c1cccc(Cl)c1` [Example 3, N,N′-[dithiobis(ethane-2,1-diyliminocarbonyl)]bis(3-chlorobenzenesulfonamide)], the melting point lay in the range of 165 to 167 °C.

`Cc1cccc(S(=O)(=O)NC(=O)NCCCCCCNC(=O)NS(=O)(=O)c2cccc(C)c2)c1` [Example 8, N,N′-[hexane-1,6-diylbis(iminocarbonyl)]bis(3-methylbenzenesulfonamide)]: the IC50 at human liver FBPase was determined as 22 nM.
